The source of these data is patent US20180271888A1, “COMPOSITIONS AND METHODS FOR PARKINSON'S DISEASE THERAPY” (priority 2017, published 2018).

Where two headings read alike, the source gives them in different places.

Data set [1] relates to DARPP-32. As to the kind of experiment: Western immunoblotting of total and phosphorylated DARPP-32 in striatum after IVM. Type of data set: in vivo, mouse. The method, then: (§1) The dorsal and ventral striata were dissected from P2X4R KO and WT mice following killing with CO2 asphyxiation. […] The dorsal and ventral striata were dissected out as per the neuroanatomical landmarks described in the mouse brain atlas (Franklin, B. J. and Paxinos, G. (2007) The Mouse Brain in Stereotaxic Coordinates. Elsevier Academic Press, Amsterdam). The brain tissues were homogenized in a buffer containing 50 mM Tris-HCl pH (8.0), 150 mM NaCl, 1 mM EDTA, 0.1% sodium dodecyl sulfate, 1/100 dilution proteinases inhibitor cocktail (Millipore, Temecula, Calif., USA), and protein content was determined using bicinchoninic acid assay kit (Thermo Scientific, Rockford, Ill., USA). Homogenates were treated with a cocktail of phosphatase inhibitors (1 mM sodium pyrophosphate, 10 mM sodium fluoride, 0.5 mM sodium orthovandate, 10 mM β-glycerol phosphate, 1 μM microcysteine LR) (Sigma-Aldrich) for detection of phosphoproteins.
Protein samples of 50 lg ran on 10% sodium dodecyl sulfate-polyacrylamide gel electrophoresis gels and transferred onto polyvinylidine diflouride membranes using semi-dry transfer method (Trans turbo blot; BioRad Laboratories, Hercules, Calif., USA). Striatal samples from WT and P2X4R KO mice were made to run on the same gel and transferred onto the same membrane. Nonspecific binding was blocked by incubation in 5% non-fat dry milk, followed by incubation with primary antibodies overnight at 4° C. The antibodies used were rabbit anti-TH (1:5000), mouse anti-DAT (1:1000), rabbit anti-D2 receptor (1:1000), rabbit anti-DARPP-32 (1:1000) (Millipore), rabbit anti-D1 receptor (1:500; SantaCruz biotechnology, Santacruz, Calif., USA), mouse anti-total ERK 1/2 (1:1000), rabbit anti-total CREB (1:1000) (Cell Signaling Technology, Beverly, Mass., USA), mouse anti-β-actin (1:20 000; Sigma-Aldrich), and mouse anti-α-tubulin (1:10 000; Millipore). The antibodies for phospho proteins included rabbit antiphospho-Thr34-DARPP-32 (1:400; Millipore), rabbit anti-phospho-Ser133-CREB (1:500), rabbit anti-diphospho-Thr202/Tyr204-ERK 1/2 (1:500) (Cell Signaling Technology). Secondary antibodies included goat anti-mouse and goat anti-rabbit antibodies (1:10 000; BioRad Laboratories). Bands were visualized using chemiluminescence method (Clarity western plus enhanced chemiluminescence substrate; BioRad Laboratories) followed by exposure to HyBlot autoradiography films (Denville Scientific, Metuchen, N.J., USA). Protein quantification was carried out by optical densitometry using ImageJ software (NIH, Bethesda, Md., USA). Protein densities were normalized to β-actin or α-tubulin levels.
(§2) For the western blotting analysis, the average of densitometry values of WT striatal samples was used to arbitrarily normalize WT samples to 1 and the P2X4R KO striatal samples were normalized by dividing each densitometry value by the average of WT samples. […] Normalized density of proteins was expressed as mean±SEM. Phosphorylation was calculated as ratio of normalized values of phosphorylated form to total form of protein. DA levels were expressed as ng/mg of protein content. […] Pharmacological studies for motor behavior and sensorimotor gating were analyzed by two-way repeated measures ANOVA with time/PPI intensity and genotype/treatment as within and between-subjects variability, respectively, followed by Bonferroni post hoc test for multiple comparisons. […]

The subject of data set [2] is ERK 1/2. Description: Western immunoblotting of total and phosphorylated ERK 1/2 in striatum after IVM. The format is in vivo, mouse. The procedure:
as §1
(§3) Protein samples of 50 lg ran on 10% sodium dodecyl sulfate-polyacrylamide gel electrophoresis gels and transferred onto polyvinylidine diflouride membranes using semi-dry transfer method (Trans turbo blot; BioRad Laboratories, Hercules, Calif., USA). Striatal samples from WT and P2X4R KO mice were made to run on the same gel and transferred onto the same membrane. Nonspecific binding was blocked by incubation in 5% non-fat dry milk, followed by incubation with primary antibodies overnight at 4° C. The antibodies used were rabbit anti-TH (1:5000), mouse anti-DAT (1:1000), rabbit anti-D2 receptor (1:1000), rabbit anti-DARPP-32 (1:1000) (Millipore), rabbit anti-D1 receptor (1:500; SantaCruz biotechnology, Santacruz, Calif., USA), mouse anti-total ERK 1/2 (1:1000), rabbit anti-total CREB (1:1000) (Cell Signaling Technology, Beverly, Mass., USA), mouse anti-β-actin (1:20 000; Sigma-Aldrich), and mouse anti-α-tubulin (1:10 000; Millipore). […] Protein quantification was carried out by optical densitometry using ImageJ software (NIH, Bethesda, Md., USA). […]
as §2

Data set [3] deals with CREB. As to the kind of experiment: Western immunoblotting of total and phosphorylated CREB in striatum after IVM. The format is in vivo, mouse. To be noted: effect of IVM treatment 5 mg/kg. The method, then: as §1, §3, §2
(In western blotting, separated proteins are transferred to a membrane and probed.)

The subject of data set [4] is 6-OHDA lesioned WT and P2X4R KO mice. As to the kind of experiment: L-DOPA-induced rotational behavior in the 6-OHDA model of DA depletion (Example 1). Type of data set: in vivo, mouse. The method, then: Mice were treated with desipramine hydrochloride (25 mg/kg, i.p.) (Sigma-Aldrich) 30 min prior to surgery to prevent concurrent damage of noradrenergic pathways by 6-OHDA. Mice were anesthetized with avertin ([…], i.p.) and placed in the stereotaxic apparatus. Two μL of freshly prepared 6-OHDA bromide salt (4 mg/mL in 0.2% ascorbic acid and 0.9% saline; Sigma-Aldrich) was unilaterally infused into left median forebrain bundle (from Bregma point: 1.2 mm posterior, 1.1 mm lateral, 5 mm ventral) (Franklin, B. J. and Paxinos, G. (2007) The Mouse Brain in Stereotaxic Coordinates. Elsevier Academic Press, Amsterdam) at a rate of 0.5 μL/min using a 10 μL Hamilton syringe and a microlitre syringe pump. The injection cannula was left in place for 3-5 min to prevent reflux and ensure complete absorption. Post-operative procedures involved daily subcutaneous (s.c.) injections with sucrose (5% w/v in saline) and warming on a heating pad for 2 weeks.
Mice were subjected to behavioral testing 3 weeks after 6-OHDA lesioning surgery. Mice were placed in a plastic cylinder (318 mm in diameter) with a video camera mounted above it. Baseline rotational behavior was established by saline injections which causes the mouse to rotate toward the lesioned side with lesser DA activity (ipsilateral rotations). L-DOPA (5 mg/kg, s.c.) was administered 5 min prior to behavioral testing and the number of contralateral and ipsilateral rotations were counted in every 10-minute interval for a total period of 90 min.
For the western blotting analysis, the average of densitometry values of WT striatal samples was used to arbitrarily normalize WT samples to 1 and the P2X4R KO striatal samples were normalized by dividing each densitometry value by the average of WT samples. Normalization of the two genotypes was done within the same membrane and presented as fold change of P2X4R KO versus WT in that membrane. For D1, D2, DARPP-32, ERK 1/2, and CREB immunoblotting; WT and P2X4R KO mice were generated in separate cohorts. The normalization of P2X4R KO to WT samples was done within the same cohort followed by combining data from two cohorts for analyses. […] Normalized density of proteins was expressed as mean±SEM. Phosphorylation was calculated as ratio of normalized values of phosphorylated form to total form of protein. DA levels were expressed as ng/mg of protein content. Unpaired Student t-test was used for analyzing the differences in protein densities and DA levels between WT and P2X4R KO groups. […] Pharmacological studies for motor behavior and sensorimotor gating were analyzed by two-way repeated measures ANOVA with time/PPI intensity and genotype/treatment as within and between-subjects variability, respectively, followed by Bonferroni post hoc test for multiple comparisons. Significance was set at p<0.05. All data were analyzed using GraphPad Prism software (San Diego, Calif., USA).

Data set [5] concerns WT and P2X4R KO mice. Particulars: Bortolato et al. 2013, cited from earlier work.
For data set [6] the following is noted: cited from earlier work.
[7] abbreviates: ventral striatum, main effect of IVM treatment 5 mg/kg, treatment×genotype interaction significant (p<0.05).
Where [8] appears, read: ventral striatum, effect of IVM treatment 5 mg/kg.

Take `CC[C@H](C)[C@H]1O[C@]2(CC[C@@H]1C)C[C@@H]1C[C@@H](C/C=C(\C)[C@@H](O[C@H]3C[C@H](OC)[C@@H](O[C@H]4C[C@H](OC)[C@@H](O)[C@H](C)O4)[C@H](C)O3)[C@@H](C)/C=C/C=C3\CO[C@@H]4[C@H](O)C(C)=C[C@@H](C(=O)O1)[C@]34O)O2` [IVM, ivermectin]: the DARPP-32 phosphorylation entry in data set [1] (dorsal striatum, P2X4R KO mice, IVM 5 mg/kg i.p., 8 h post-drug) is reported as “did not increase”; in data set [1] (dorsal striatum, WT mice, IVM 5 mg/kg i.p., 8 h post-drug, vs vehicle, Bonferroni p<0.05) it was “significant increase”; in data set [1] (setting [7]), “no significant effect”. Also, the “total DARPP-32 levels” value in data set [1] (dorsal striatum, main effect of IVM treatment (5 mg/kg i.p.), treatment×genotype interaction significant) is on record as “no significant effect”; in data set [1] (setting [7]), “no significant effect”. Besides, the “ERK 1/2 phosphorylation” value in data set [2] (dorsal striatum, IVM 5 mg/kg, both genotypes (independent of P2X4R function)) is “increased”; in data set [2] (setting [8]) it was “no significant effect”. Further, the “total ERK 1/2 levels” value in data set [2] (dorsal striatum, main effect of IVM treatment, treatment×genotype interaction significant) is recorded as “no significant effect”; in data set [2] (setting [8]) it was “no significant effect”. For the same compound, the CREB phosphorylation entry is given as “no significant effect” in data set [3] (dorsal striatum) and “no significant effect” in data set [3] (ventral striatum, interaction trended toward significance). Further, the “total CREB levels” value in data set [3] (dorsal striatum) and in data set [3] (ventral striatum) was “no significant effect” in each case. In addition, the “L-DOPA induced motor behavior (contralateral rotations)” value in data set [4] (6-OHDA P2X4R KO mice, IVM 5 mg/kg + L-DOPA 5 mg/kg vs L-DOPA alone, during the 5-15 min interval) was “significant increase”. Moreover, the “number of L-DOPA-induced rotations (contralateral)” value in data set [4] (6-OHDA WT mice, IVM 5 mg/kg i.p. 8 h prior + L-DOPA 5 mg/kg s.c. vs L-DOPA alone, significant 5-65 min) was “significantly increased”. The “rotations induced by IVM alone (ipsilateral)” value in data set [4] (6-OHDA WT mice, IVM 5 mg/kg i.p. 8 h prior, average for 2 hours, SEM ±2, significant vs sham controls) is on record as 12 rotations. The “PPI (effect of IVM)” value was “attenuated response” in data set [5] (P2X4R KO mice) and “PPI disruption” in data set [5] (WT C57BL/6J mice).
As for `C[C@@](Cc1ccc(O)c(O)c1)(NN)C(=O)O.O` [Carbidopa, N-amino-α-methyl-3-hydroxy-L-tyrosine monohydrate], the solubility in water result in data set [6] is “slightly soluble”.
